The conditions of this data set: ether bond, 13-membered ring, 100.0 °C.

In patent US20240279214A1, “ALPHA4 BETA7 INEGRIN ANTAGONISTS AND USES THEREOF” (XinThera, Inc., priority 2022, published 2024) one finds ring closure, isolated yield data, which are given here for 22 molecules.

Molecules are shown by their SMILES. Read-outs that look alike come from different tables or passages of the source.

Turning to `CCOC(=O)C[C@H](NC(=O)C(c1cc(Br)cc(Cl)c1F)n1cc(CCN2CC(F)C2)c(C(F)(F)F)cc1=O)c1cc(-c2c(C)cccc2O)cc(C)c1F` (stereo partly shown), the ring closure, isolated yield (the molecule shown is the open-chain precursor, CuI/(1R,2R)-N1,N2-dimethylcyclohexane-1,2-diamine/K2CO3, dioxane, 46.7 mM) was determined as 46.1%.
`CCOC(=O)C[C@H](NC(=O)C(c1cc(Br)ccc1F)n1ccc(C(F)(F)F)c(Cl)c1=O)c1cc(-c2c(C)cccc2O)cc(C)c1F` (stereo partly shown): under “the molecule shown is the open-chain precursor, CuI/K2CO3/(1R,2R)-N1,N2-dimethylcyclohexane-1,2-diamine, 1,4-dioxane, 43.3 mM”, the ring closure, isolated yield is 56.1%.
`CCOC(=O)C[C@H](NC(=O)C(c1cc(Cl)cc(Br)c1)n1cc(CCN2CC(F)C2)c(C(F)(F)F)cc1=O)c1cc(-c2c(C)cccc2O)cc(C(F)(F)F)c1F` (stereo partly shown) displayed a ring closure, isolated yield (the molecule shown is the open-chain precursor, CuI/(1R,2R)-N1,N2-dimethylcyclohexane-1,2-diamine/K2CO3, dioxane, 19.0 mM) of 56%.
The molecule `CCOC(=O)C[C@H](NC(=O)C(c1cc(Cl)cc(Br)c1)n1cc(CCN2CC(F)C2)c(C(F)(F)F)cc1=O)c1cc(-c2c(O)ccc(F)c2C)cc(C)c1F` (stereo partly shown) showed a ring closure, isolated yield (the molecule shown is the open-chain precursor, CuI/(1R,2R)-N1,N2-dimethylcyclohexane-1,2-diamine/K2CO3, dioxane, 22.0 mM) of 98.3%.
Where the note is “from CCOC(=O)C[C@H](NC(=O)C(c1cc(Br)ccc1F)n1cc(CCCN(C)C)c(C(F)(F)F)cc1=O)c1cc(-c2c(C)cccc2O)cc(C)c1F, CuI/K2CO3/(1R,2R)-N1,N2-dimethylcyclohexane-1,2-diamine, 1,4-dioxane, 62.0 mM, 16.0 h”, `CCOC(=O)C[C@@H]1NC(=O)C(n2cc(CCCN(C)C)c(C(F)(F)F)cc2=O)c2cc(ccc2F)Oc2cccc(C)c2-c2cc(C)c(F)c1c2` (stereo in doubt) showed a ring closure, isolated yield of 55.6%.
Consider `CCOC(=O)C[C@@H]1NC(=O)C(n2cc(CCN(C)C)c(C(F)(F)F)cc2=O)c2cc(ccc2F)Oc2cccc(C)c2-c2cc(C)c(F)c1c2` (stereo in doubt), for which the ring closure, isolated yield (from CCOC(=O)C[C@H](NC(=O)C(c1cc(Br)ccc1F)n1cc(CCN(C)C)c(C(F)(F)F)cc1=O)c1cc(-c2c(C)cccc2O)cc(C)c1F, CuI/K2CO3/(1R,2R)-N1,N2-dimethylcyclohexane-1,2-diamine, 1,4-dioxane, 56.0 mM, 16.0 h) is 70%.
`CCOC(=O)C[C@@H]1NC(=O)C(n2cc(CCN(C)C)c(C(F)(F)F)cc2=O)c2cccc(c2)Oc2cccc(C)c2-c2cc1c(F)c(C(F)(F)F)c2` (stereo in doubt) had a ring closure, isolated yield (from CCOC(=O)C[C@H](NC(=O)C(c1cccc(Br)c1)n1cc(CCN(C)C)c(C(F)(F)F)cc1=O)c1cc(-c2c(C)cccc2O)cc(C(F)(F)F)c1F, CuI/(1R,2R)-N1,N2-dimethylcyclohexane-1,2-diamine/K2CO3, dioxane, 68.3 mM, 16.0 h) of 55.5%.
Molecule `CCOC(=O)C[C@@H]1NC(=O)C(n2cc(CCN3CC(F)C3)c(C(F)(F)F)cc2=O)c2cc(cc(C(F)(F)F)c2)Oc2cccc(C)c2-c2cc(C)c(F)c1c2` (stereo in doubt) came in with a ring closure, isolated yield (from CCOC(=O)C[C@H](NC(=O)C(c1cc(Br)cc(C(F)(F)F)c1)n1cc(CCN2CC(F)C2)c(C(F)(F)F)cc1=O)c1cc(-c2c(C)cccc2O)cc(C)c1F, CuI/K2CO3/(1R,2R)-N1,N2-dimethylcyclohexane-1,2-diamine, dioxane, 90.0 mM, 2.0 h) of 69%.
For `CCOC(=O)C[C@@H]1NC(=O)C(n2cc(CCN3CC(F)C3)c(C(F)(F)F)cc2=O)c2cc(ccc2Cl)Oc2cccc(C)c2-c2cc(C)c(F)c1c2` (stereo in doubt), the ring closure, isolated yield (from CCOC(=O)C[C@H](NC(=O)C(c1cc(Br)ccc1Cl)n1cc(CCN2CC(F)C2)c(C(F)(F)F)cc1=O)c1cc(-c2c(C)cccc2O)cc(C)c1F, CuI/K2CO3/(1R,2R)-N1,N2-dimethylcyclohexane-1,2-diamine, 1,4-dioxane, 26.7 mM, 16.0 h) was determined as 50.3%.
For the molecule `CCOC(=O)C[C@@H]1NC(=O)C(n2cc(CCN3CC(F)C3)c(C(F)(F)F)cc2=O)c2cc(ccc2F)Oc2cc(Cl)cc(C)c2-c2cc(C)c(F)c1c2` (stereo in doubt), the ring closure, isolated yield (from CCOC(=O)C[C@H](NC(=O)C(c1cc(Br)ccc1F)n1cc(CCN2CC(F)C2)c(C(F)(F)F)cc1=O)c1cc(-c2c(C)cc(Cl)cc2O)cc(C)c1F, CuI/(1R,2R)-N1,N2-dimethylcyclohexane-1,2-diamine/K2CO3, dioxane, 47.0 mM, 16.0 h) stood at 52.5%.
Regarding `CCOC(=O)C[C@@H]1NC(=O)C(n2cc(CCN3CC(F)C3)c(C(F)(F)F)cc2=O)c2cc(ccc2F)Oc2cc(F)cc(C)c2-c2cc(C)c(F)c1c2` (stereo in doubt), the ring closure, isolated yield (from CCOC(=O)C[C@H](NC(=O)C(c1cc(Br)ccc1F)n1cc(CCN2CC(F)C2)c(C(F)(F)F)cc1=O)c1cc(-c2c(C)cc(F)cc2O)cc(C)c1F, CuI/K2CO3/(1R,2R)-N1,N2-dimethylcyclohexane-1,2-diamine, dioxane, 30.0 mM, 16.0 h) stood at 48.2%.
`CCOC(=O)C[C@@H]1NC(=O)C(n2cc(CCN3CC(F)C3)c(C(F)(F)F)cc2=O)c2cc(ccc2F)Oc2ccc(C)c(C)c2-c2cc(C)c(F)c1c2` (stereo in doubt) gave a ring closure, isolated yield (from CCOC(=O)C[C@H](NC(=O)C(c1cc(Br)ccc1F)n1cc(CCN2CC(F)C2)c(C(F)(F)F)cc1=O)c1cc(-c2c(O)ccc(C)c2C)cc(C)c1F, CuI/(1R,2R)-N1,N2-dimethylcyclohexane-1,2-diamine/K2CO3, dioxane, 15.0 mM, 16.0 h) of 64.7%.
Where the note is “from CCOC(=O)C[C@H](NC(=O)C(c1cc(Br)ccc1F)n1cc(CCN2CC(F)C2)c(C(F)(F)F)cc1=O)c1cc(-c2c(O)ccc(F)c2C)cc(C)c1F, CuI/K2CO3/(1R,2R)-N1,N2-dimethylcyclohexane-1,2-diamine, dioxane, 34.0 mM, 16.0 h”, `CCOC(=O)C[C@@H]1NC(=O)C(n2cc(CCN3CC(F)C3)c(C(F)(F)F)cc2=O)c2cc(ccc2F)Oc2ccc(F)c(C)c2-c2cc(C)c(F)c1c2` (stereo in doubt) returned a ring closure, isolated yield of 55.2%.
In turn, `CCOC(=O)C[C@@H]1NC(=O)C(n2cc(CCN3CC(F)C3)c(C(F)(F)F)cc2=O)c2cc(ccc2F)Oc2cccc(C(F)(F)F)c2-c2cc(C)c(F)c1c2` (stereo in doubt) came in with a ring closure, isolated yield (from CCOC(=O)C[C@H](NC(=O)C(c1cc(Br)ccc1F)n1cc(CCN2CC(F)C2)c(C(F)(F)F)cc1=O)c1cc(-c2c(O)cccc2C(F)(F)F)cc(C)c1F, CuI/K2CO3/N1,N2-dimethylcyclohexane-1,2-diamine, dioxane, 16.7 mM, 16.0 h) of 66.7%.
Under “from CCOC(=O)C[C@H](NC(=O)C(c1cc(Br)ccc1F)n1cc(CCN2CC(F)C2)c(C(F)(F)F)cc1=O)c1cc(-c2c(C)cccc2O)cc(C(F)F)c1F, CuI/(1R,2R)-N1,N2-dimethylcyclohexane-1,2-diamine/K2CO3, 1,4-dioxane, 17.3 mM, 16.0 h”, `CCOC(=O)C[C@@H]1NC(=O)C(n2cc(CCN3CC(F)C3)c(C(F)(F)F)cc2=O)c2cc(ccc2F)Oc2cccc(C)c2-c2cc(C(F)F)c(F)c1c2` (stereo in doubt) gave a ring closure, isolated yield of 50.2%.
Under “from CCOC(=O)C[C@H](NC(=O)C(c1cc(Br)ccc1F)n1cc(CCN2CC(F)C2)c(C(F)(F)F)cc1=O)c1cc(-c2c(C)cccc2O)cc(C2CC2)c1F, CuI/K2CO3/(1R,2R)-N1,N2-dimethylcyclohexane-1,2-diamine, dioxane, 25.0 mM, 16.0 h”, `CCOC(=O)C[C@@H]1NC(=O)C(n2cc(CCN3CC(F)C3)c(C(F)(F)F)cc2=O)c2cc(ccc2F)Oc2cccc(C)c2-c2cc(C3CC3)c(F)c1c2` (stereo in doubt) had a ring closure, isolated yield of 67.3%.
For `CCOC(=O)C[C@@H]1NC(=O)C(n2cc(CCN3CC(F)C3)c(C(F)(F)F)cc2=O)c2cc(ccc2F)Oc2cccc(C)c2-c2cc(Cl)c(F)c1c2` (stereo in doubt), for the setting “from CCOC(=O)C[C@H](NC(=O)C(c1cc(Br)ccc1F)n1cc(CCN2CC(F)C2)c(C(F)(F)F)cc1=O)c1cc(-c2c(C)cccc2O)cc(Cl)c1F, CuI/K2CO3/(1R,2R)-N1,N2-dimethylcyclohexane-1,2-diamine, 1,4-dioxane, 46.7 mM, 16.0 h”, the ring closure, isolated yield was 64.9%.
`CCOC(=O)C[C@@H]1NC(=O)C(n2cc(CCN3CC(F)C3)c(C(F)(F)F)cc2=O)c2cc(ccc2F)Oc2cccc(C)c2-c2cc(F)c(F)c1c2` (stereo in doubt) had a ring closure, isolated yield (from CCOC(=O)C[C@H](NC(=O)C(c1cc(Br)ccc1F)n1cc(CCN2CC(F)C2)c(C(F)(F)F)cc1=O)c1cc(-c2c(C)cccc2O)cc(F)c1F, CuI/K2CO3/N1,N2-dimethylcyclohexane-1,2-diamine, 1,4-dioxane, 51.7 mM, 16.0 h) of 44.4%.
As for `CCOC(=O)C[C@@H]1NC(=O)C(n2cc(CCN3CC(F)C3)c(C(F)(F)F)cc2=O)c2cc(ccc2F)Oc2cccc(Cl)c2-c2cc(C)c(F)c1c2` (stereo in doubt), the ring closure, isolated yield (from CCOC(=O)C[C@H](NC(=O)C(c1cc(Br)ccc1F)n1cc(CCN2CC(F)C2)c(C(F)(F)F)cc1=O)c1cc(-c2c(O)cccc2Cl)cc(C)c1F, CuI/(1R,2R)-N1,N2-dimethylcyclohexane-1,2-diamine, 1,4-dioxane, 70.0 mM, 16.0 h) amounted to 49.7%.
With `CCOC(=O)C[C@@H]1NC(=O)C(n2cc(CCN3CC(F)C3)c(C(F)(F)F)cc2=O)c2cccc(c2)Oc2cccc(C)c2-c2cc(C)c(F)c1c2` (stereo in doubt), the ring closure, isolated yield (from CCOC(=O)C[C@H](NC(=O)C(c1cccc(Br)c1)n1cc(CCN2CC(F)C2)c(C(F)(F)F)cc1=O)c1cc(-c2c(C)cccc2O)cc(C)c1F, CuI/K2CO3, dioxane, 42.0 mM, 16.0 h) worked out at 33.4%.
Molecule `CCOC(=O)C[C@@H]1NC(=O)C(n2cc(CCN3CC(F)C3)cc(CC)c2=O)c2cc(ccc2F)Oc2cccc(C)c2-c2cc(C)c(F)c1c2` (stereo in doubt) displayed a ring closure, isolated yield (from CCOC(=O)C[C@H](NC(=O)C(c1cc(Br)ccc1F)n1cc(CCN2CC(F)C2)cc(CC)c1=O)c1cc(-c2c(C)cccc2O)cc(C)c1F, CuI/(1R,2R)-N,N'-dimethylcyclohexane-1,2-diamine/K2CO3, dioxane, 40.0 mM, 16.0 h) of 46.5%.
The molecule `CCOC(=O)C[C@@H]1NC(=O)C(n2ccc(C(F)(F)F)c(C3CC3)c2=O)c2cc(ccc2F)Oc2cccc(C)c2-c2cc(C)c(F)c1c2` (stereo in doubt) came in with a ring closure, isolated yield (from CCOC(=O)C[C@H](NC(=O)C(c1cc(Br)ccc1F)n1ccc(C(F)(F)F)c(C2CC2)c1=O)c1cc(-c2c(C)cccc2O)cc(C)c1F, CuI/K2CO3/(1R,2R)-N1,N2-dimethylcyclohexane-1,2-diamine, dioxane, 45.0 mM) of 46.7%.
